Data published in patent US9040524B2, “Antifungal 5,6-dihydro-4H-pyrrolo[1,2-a][1,4]-benzodiazepines and 6H-pyrrolo[1,2-a][1,4]benzodiazepines substituted with bicycle benzene derivatives” (JANSSEN PHARMACEUTICA NV, priority 2010, dated 2015).

Columns and labels:
Microsporum canis = test: Antifungal activity in vitro, resazurin growth inhibition screen: Microsporum canis; assay type: cell-based; details: Microsporum canis B68128; for IC50: read-out: Inf. B pIC50 (converted)
How it was run: (§1)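 Compound serial dilutions (2- or 4-fold), highest in-test concentration 64 μM, in U-bottom 96-well plates. Each well inoculated with 10^3 cfu fungus in RPMI-MOPS medium; growth read by resazurin against drug-free (100%) and medium-only (0%) controls.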

[1] = tested on: Trichophyton mentagrophytes; test: Antifungal activity in vitro, resazurin growth inhibition screen: Trichophyton mentagrophytes; assay type: cell-based; details: Trichophyton mentagrophytes B70554; for IC50: read-out: Inf. G pIC50 (converted)
How it was run: as §1

Trichophyton rubrum = test: Antifungal activity in vitro, resazurin growth inhibition screen: Trichophyton rubrum; assay type: cell-based; details: Trichophyton rubrum B68183; for IC50: read-out: Inf. C pIC50 (converted)
How it was run: as §1

Scedosporium apiospermum = test: Antifungal activity in vitro, resazurin growth inhibition screen: Scedosporium apiospermum; assay type: cell-based; details: Scedosporium apiospermum IHEM3817; for IC50: read-out: Inf. H pIC50 (converted)
Procedure: (§2) The standard susceptibility screen was performed in 96-well plates (U-bottom, Greiner Bio-One). Serial dilutions (2-fold or 4-fold) of 20 mM compound stock solutions were made in 100% DMSO, followed by an intermediate dilution step in water. These serial dilutions (10 μl) were then spotted onto test-plates that could be stored in the dark at 4° C. for a maximum period of 2 weeks. An adequate broad dose-range was included with 64 μM as the highest in-test concentration. […] The different fungal species/isolates (Table 3a) were cryopreserved and 1/1000 diluted in medium just prior to use. A standard inoculum of 200 μl containing 10^3 colony-forming unit (cfu) was then added to each well. A positive control (100% growth=fungal culture without antifungal) and a negative control (0% growth=RPMI-MOPS medium) were included on each plate.

Scedosporium prolificans = test: Antifungal activity in vitro, resazurin growth inhibition screen: Scedosporium prolificans; assay type: cell-based; details: Scedosporium prolificans IHEM21157; for IC50: Lomentospora prolificans, read-out: Inf. I pIC50 (converted)
Procedure: as §2

Sporothrix schenkii = test: Antifungal activity in vitro, resazurin growth inhibition screen: Sporothrix schenkii; assay type: cell-based; details: Sporothrix schenkii B62482; for IC50: read-out: Inf. A pIC50 (converted)
How it was run: as §1

Aspergillus fumigatus = test: Antifungal activity in vitro, resazurin growth inhibition screen: Aspergillus fumigatus; assay type: cell-based; details: Aspergillus fumigatus B42928; for IC50: read-out: Inf. E pIC50 (converted)
How it was run: as §1

Candida parapsilosis = test: Antifungal activity in vitro, resazurin growth inhibition screen: Candida parapsilosis; assay type: cell-based; details: Candida parapsilosis B66126; for IC50: Lodderomyces parapsilosis, read-out: Inf. D pIC50 (converted)
How it was run: as §1

Cryptococcus neoformans = test: Antifungal activity in vitro, resazurin growth inhibition screen: Cryptococcus neoformans; assay type: cell-based; details: Cryptococcus neoformans B66663; for IC50: read-out: Inf. F pIC50 (converted)
How it was run: as §1

Rhizopus oryzae = test: Antifungal activity in vitro, resazurin growth inhibition screen: Rhizopus oryzae; assay type: cell-based; details: Rhizopus oryzae IHEM5223; for IC50: Rhizopus arrhizus, read-out: Inf. J pIC50 (converted)
Procedure: as §2

Rhizomucor miehei = test: Antifungal activity in vitro, resazurin growth inhibition screen: Rhizomucor miehei; assay type: cell-based; details: Rhizomucor miehei IHEM13391; for IC50: read-out: Inf. K pIC50 (converted)
Procedure: as §2

| Compound | IC50 (Microsporum canis) [µM] | IC50 [1] [µM] | IC50 (Trichophyton rubrum) [µM] | IC50 (Scedosporium apiospermum) [µM] | IC50 (Sporothrix schenkii) [µM] | IC50 (Aspergillus fumigatus) [µM] | IC50 (Candida parapsilosis) [µM] | IC50 (Cryptococcus neoformans) [µM] | IC50 (Rhizopus oryzae) [µM] | IC50 (Rhizomucor miehei) [µM] | melting point | also measured |
| --- | --- | --- | --- | --- | --- | --- | --- | --- | --- | --- | --- | --- |
| O=C1OCc2cc(C3=NCc4c(Cl)cccc4-n4cccc43)ccc21 [Compound 65, 5-(7-chloro-6H-pyrrolo[1,2-a][1,4]benzodiazepin-4-yl)-1(3H)-isobenzofuranone] | 2.04 | 1.91 | 1.82 | 0.759 | 7.76 | 0.372 | 5.13 | 10.2 | > 64.6 | > 64.6 | 251.2 to 253 °C | IC50 (Scedosporium prolificans): 0.589 µM |
| CN1C(=O)C(C)(C)c2cc(C3=NCc4c(Cl)cccc4-n4cccc43)ccc21 [Compound 1, 5-(7-chloro-6H-pyrrolo[1,2-a][1,4]benzodiazepin-4-yl)-1,3-dihydro-1,3,3-trimethyl-2H-indol-2-one] | 9.33 | 26.3 | 7.94 |  | > 64.6 | 2.24 | > 64.6 | 4.27 |  |  | 233.7 to 235.1 °C |  |
| Clc1cccc2c1-n1cccc1C(c1ccc3c(c1)CCCO3)=NC2 [Compound 43, 10-chloro-4-(3,4-dihydro-2H-1-benzopyran-6-yl)-6H-pyrrolo[1,2-a][1,4]benzo-diazepine] | 0.158 | 0.219 | 0.129 |  | 0.912 | 0.141 | 4.37 | 0.209 |  |  | 103.7 °C |  |
| Clc1cc(Cl)c2c(c1)CN=C(c1ccc3c(c1)CCC3)c1cccn1-2 [Compound 25, 8,10-dichloro-4-(2,3-dihydro-1H-inden-5-yl)-6H-pyrrolo[1,2-a][1,4]benzodiazepine] | 0.832 | 0.38 | 0.794 | > 64.6 | 2 | 0.155 | > 64.6 | 1 | > 64.6 | 39.8 | 178.5 to 180.2 °C |  |
| Fc1cccc2c1CN=C(c1ccc3c(c1)CCC(F)(F)O3)c1cccn1-2 [Compound 70, 4-(2,2-difluoro-3,4-dihydro-2H-1-benzopyran-6-yl)-7-fluoro-6H-pyrrolo[1,2-a]-[1,4]benzodiazepine] | 64.6 | > 64.6 | > 64.6 |  | > 64.6 | > 64.6 | 0.759 | 0.955 |  |  | 158.9 to 159.3 °C |  |
| O=C1OCc2ccc(C3=NCc4c(Cl)cc(Cl)cc4-n4cccc43)cc21 [Compound 64, 6-(7,9-dichloro-6H-pyrrolo[1,2-a][1,4]benzodiazepin-4-yl)-1 (3H)-isobenzofuranone] | > 64.6 | > 64.6 | > 64.6 |  | > 64.6 | > 64.6 | > 64.6 | > 64.6 |  |  | 210.5 to 212 °C |  |
| O=C1CCCc2cc(C3=NCc4c(F)cccc4-n4cccc43)ccc21 [Compound 59, 6-(7-fluoro-6H-pyrrolo[1,2-a][1,4]benzodiazepin-4-yl)-3,4-dihydro-1(2H)-naphthalenone] | 0.372 | 0.339 | 0.129 | 0.741 | 4.27 | 0.398 | 2.75 | 1.12 | > 12.9 | 1.48 |  | IC50 (Scedosporium prolificans): 1.48 µM |
| Clc1cccc2c1CN=C(c1ccc3c(c1)CCOC3)c1cccn1-2 [Compound 37, 7-chloro-4-(3,4-dihydro-1H-2-benzopyran-6-yl)-6H-pyrrolo[1,2-a][1,4]benzo-diazepine] |  |  |  |  |  |  |  |  |  |  |  | Inf. B pIC50 (Microsporum canis): 6.62; Inf. G pIC50 [1]: 6.47; Inf. C pIC50 (Trichophyton rubrum): 6.89; Inf. H pIC50 (Scedosporium apiospermum): 4.48; Inf. I pIC50 (Scedosporium prolificans): 5.85; Inf. A pIC50 (Sporothrix schenkii): 5.26; Inf. E pIC50 (Aspergillus fumigatus): 6.77; Inf. D pIC50 (Candida parapsilosis): 5.79; Inf. F pIC50 (Cryptococcus neoformans): 5.88; Inf. J pIC50 (Rhizopus oryzae): <4.19; Inf. K pIC50 (Rhizomucor miehei): <4.19 |
| FC1(F)Oc2ccc(C3=NCc4cccc(Cl)c4-n4cccc43)cc2O1 [Compound 76, 10-chloro-4-(2,2-difluoro-1,3-benzodioxol-5-yl)-6H-pyrrolo[1,2-a][1,4]benzo-diazepine] |  |  |  |  |  |  |  |  |  |  |  | Inf. B pIC50 (Microsporum canis): 6.70; Inf. G pIC50 [1]: 6.38; Inf. C pIC50 (Trichophyton rubrum): 6.82; Inf. H pIC50 (Scedosporium apiospermum): 5.13; Inf. I pIC50 (Scedosporium prolificans): 5.04; Inf. A pIC50 (Sporothrix schenkii): 5.69; Inf. E pIC50 (Aspergillus fumigatus): 5.94; Inf. D pIC50 (Candida parapsilosis): 5.18; Inf. F pIC50 (Cryptococcus neoformans): 5.82; Inf. J pIC50 (Rhizopus oryzae): 4.57; Inf. K pIC50 (Rhizomucor miehei): 4.98 |

The next lines start with results.

| IC50 (Microsporum canis) [µM] | IC50 [1] [µM] | IC50 (Trichophyton rubrum) [µM] | IC50 (Scedosporium apiospermum) [µM] | IC50 (Sporothrix schenkii) [µM] | IC50 (Aspergillus fumigatus) [µM] | IC50 (Candida parapsilosis) [µM] | IC50 (Cryptococcus neoformans) [µM] | IC50 (Rhizopus oryzae) [µM] | IC50 (Rhizomucor miehei) [µM] | melting point | Compound | also measured |
| --- | --- | --- | --- | --- | --- | --- | --- | --- | --- | --- | --- | --- |
| 8.91 | 6.03 | 3.98 |  | > 32.4 | > 32.4 | > 32.4 | > 32.4 |  |  | 194 to 194.2 °C | Clc1ccc(Cl)c2c1CN=C(c1ccc3c(c1)CCC3)c1cccn1-2 [Compound 24, 7,10-dichloro-4-(2,3-dihydro-1H-inden-5-yl)-6H-pyrrolo[1,2-a][1,4]benzodiazepine] |  |
| 0.537 | 0.871 | 0.447 | 0.17 | 53.7 | 0.417 | > 64.6 | 0.407 | > 64.6 | > 64.6 | 170.2 to 171.8 °C | Fc1cc(Cl)c2c(c1)-n1cccc1C(c1ccc3c(c1)CCC3(F)F)=NC2 [Compound 88, 7-chloro-4-(1,1-difluoro-2,3-dihydro-1H-inden-5-yl)-9-fluoro-6H-pyrrolo[1,2-a]-[1,4]benzodiazepine] | IC50 (Scedosporium prolificans): 2.57 µM |
| > 64.6 | > 64.6 | > 64.6 |  | > 64.6 | > 64.6 | > 64.6 | > 64.6 |  |  | 107.9 °C (dec.) | O=C1OCc2ccc(C3=NCc4c(Cl)cccc4-n4cccc43)cc21 [Compound 62, 6-(7-chloro-6H-pyrrolo[1,2-a][1,4]benzodiazepin-4-yl)-1(3H)-isobenzofuranone] |  |
| 55 | > 64.6 | 7.41 | 0.933 | > 64.6 | > 64.6 | > 64.6 | > 64.6 | > 64.6 | > 64.6 | 224.6 to 246 °C | O=C1OCc2ccc(C3=NCc4c(F)cccc4-n4cccc43)cc21 [Compound 63, 6-(7-fluoro-6H-pyrrolo[1,2-a][1,4]benzodiazepin-4-yl)-1(3H)-isobenzofuranone] | IC50 (Scedosporium prolificans): 1.58 µM |
| 3.89 | 25.1 | 1.95 |  | > 64.6 | > 64.6 | > 64.6 | > 64.6 |  |  | 214 to 217 °C | O=C1CCc2ccc(C3=NCc4c(Cl)cccc4-n4cccc43)cc21 [Compound 55, 6-(7-chloro-6H-pyrrolo[1,2-a][1,4]benzodiazepin-4-yl)-2,3-dihydro-1H-inden-1-one] |  |
| 3.02 |  | 1 |  | > 32.4 | 14.1 | > 32.4 | 2.51 |  |  | 199.3 to 201.6 °C | Clc1ccc2c(c1Cl)CN=C(c1ccc3c(c1)CCC3)c1cccn1-2 [Compound 22, 7,8-dichloro-4-(2,3-dihydro-1H-inden-5-yl)-6H-pyrrolo[1,2-a][1,4]benzodiazepine] |  |
| > 64.6 | > 64.6 | > 64.6 |  | 30.2 | > 64.6 | 3.63 | 7.08 |  |  | > 280 °C | O=C1CCCc2cc(C3=NCc4ccc(Cl)cc4-n4cccc43)ccc21 [Compound 60, 6-(9-chloro-6H-pyrrolo[1,2-a][1,4]benzodiazepin-4-yl)-3,4-dihydro-1 (2H)-naphthalenone] |  |
| 0.129 |  | 0.0708 | 8.91 | 2 | 0.269 | 0.339 | 0.38 | > 11.2 | 13.8 | 181.3 to 182.7 °C | Clc1cccc2c1CN=C(c1ccc3c(c1)CCC3)c1cccn1-2 [Compound 20, 7-chloro-4-(2,3-dihydro-1H-inden-5-yl)-6H-pyrrolo[1,2-a][1,4]benzodiazepine] | IC50 (Scedosporium prolificans): 0.851 µM |
